# PMC7702301 (Biochemical Journal, 2020)
# How the values were obtained:
# RIPK1 = conditions: phosphorylation mimicked by a glutamate residue; cited from earlier work
# MerTK [1] = conditions: cited from earlier work
# MerTK [2] = target: T1, MerTK (Homo sapiens, UniProt Q12866); assay: Surface plasmon resonance, MerTK; type: binding; conditions: read-out: residence times
# T1 sequence (Q12866 528-999): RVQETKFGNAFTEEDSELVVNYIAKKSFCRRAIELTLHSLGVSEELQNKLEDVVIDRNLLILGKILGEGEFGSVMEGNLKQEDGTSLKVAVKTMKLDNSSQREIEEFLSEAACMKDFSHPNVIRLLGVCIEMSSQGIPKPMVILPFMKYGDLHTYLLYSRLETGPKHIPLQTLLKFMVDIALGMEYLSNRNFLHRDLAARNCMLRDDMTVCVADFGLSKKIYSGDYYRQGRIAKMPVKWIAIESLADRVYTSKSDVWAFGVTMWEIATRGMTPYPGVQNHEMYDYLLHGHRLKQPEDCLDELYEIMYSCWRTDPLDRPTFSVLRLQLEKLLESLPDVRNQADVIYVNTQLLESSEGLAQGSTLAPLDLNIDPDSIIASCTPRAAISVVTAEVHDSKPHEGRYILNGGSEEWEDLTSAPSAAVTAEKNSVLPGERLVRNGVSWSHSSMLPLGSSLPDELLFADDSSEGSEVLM
# dephosphorylated MerTK = target: T2, dephosphorylated MerTK (Homo sapiens, UniProt Q12866); assay: Surface plasmon resonance, dephosphorylated MerTK; type: binding
# T2 sequence (Q12866 528-999): T1 sequence (Q12866 528-999)
structure (smiles),measurement,setting,value
CN1C(=O)C(Cc2c[nH]c3ccccc23)NC1=S (stereo not shown) [Nec-1],drop of affinity for RIPK1 upon phosphorylation of Ser161,RIPK1,~10 fold
CCc1nc(C(N)=O)c(Nc2ccc(N3CCC(N4CCN(C)CC4)CC3)c(OC)c2)nc1NC1CCOCC1 [gilteritinib],off-target activity against MerTK,MerTK [1],double-digit nanomolar
same,residence time,MerTK [2],< 1 min
Cc1ccc(C(=O)Nc2ccc(Oc3cc4cnn(C)c4cc3-c3cn[nH]c3)c(F)c2)c(=O)n1-c1ccc(F)cc1 [merestinib],residence time,dephosphorylated MerTK,> 120 min
